# Laboratory results published in ChEMBL document CHEMBL1201862, “PubChem BioAssay data set” (2004).
#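 How tested: cells in 96-well plates exposed to compound for 48 hours at five concentrations. At the GI50, growth is halved.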 The source made the active and inactive calls. Cut-off read from the data, not from the text of the source: active = GI50 up to about 1.1 µM and inactive = higher.
# Experiments:
# Test in all cases: DTP human tumour cell line panel, 48 h
# U-251 = test system: U-251
# MDA-MB-231 = test system: MDA-MB-231
# SK-MEL-28 = test system: SK-MEL-28
# CCRF-CEM = test system: CCRF-CEM
# UACC-257 = test system: UACC-257
# UACC-62 = test system: UACC-62
# SF-539 = test system: SF-539
# CAKI-1 = test system: CAKI-1
# 786-0 = test system: 786-0
# RXF 393 = test system: RXF 393
# MDA-N = test system: MDA-N
# SR = test system: SR
# SK-MEL-2 = test system: SK-MEL-2
# COLO 205 = test system: COLO 205
# BT-549 = test system: BT-549
# HT-29 = test system: HT-29
# OVCAR-3 = test system: OVCAR-3
# Hs-578T = test system: Hs-578T
# SK-MEL-5 = test system: SK-MEL-5
# SW-620 = test system: SW-620
# HCT-15 = test system: HCT-15
# OVCAR-5 = test system: OVCAR-5
# NCI-H460 = test system: NCI-H460
# SNB-75 = test system: SNB-75
# OVCAR-4 = test system: OVCAR-4
# K562 = test system: K562
# HCC 2998 = test system: HCC 2998
# LOX IMVI = test system: LOX IMVI
# TK-10 = test system: TK-10
# M14 = test system: M14
# T47D = test system: T47D
# HL-60 = test system: HL-60
# HOP-62 = test system: HOP-62
# DU-145 = test system: DU-145
# A549 = test system: A549
# PC-3 = test system: PC-3
# SN12C = test system: SN12C
# HCT-116 = test system: HCT-116
# KM12 = test system: KM12
# SK-OV-3 = test system: SK-OV-3
# SF-295 = test system: SF-295
# OVCAR-8 = test system: OVCAR-8
# EKVX = test system: EKVX
# A498 = test system: A498
# IGROV-1 = test system: IGROV-1
# HOP-92 = test system: HOP-92
# NCI-H23 = test system: NCI-H23
# MCF7 = test system: MCF7
# MDA-MB-435 = test system: MDA-MB-435
# NCI/ADR-RES = test system: NCI/ADR-RES
# SNB-19 = test system: SNB-19
# NCI-H226 = test system: NCI-H226
# RPMI-8226 = test system: RPMI-8226
# NCI-H522 = test system: NCI-H522
# UO-31 = test system: UO-31
# MOLT-4 = test system: MOLT-4
# ACHN = test system: ACHN
# SF-268 = test system: SF-268
# Malme-3M = test system: Malme-3M
smiles,measurement,setting,value
CC(C)(C)c1ccc(-c2nnc(SCc3ccc(Cl)cc3)n2-c2cccc(C(F)(F)F)c2)cc1,GI50,U-251,8.85 µM (inactive)
same,GI50,MDA-MB-231,> 69 µM (inactive)
same,GI50,SK-MEL-28,> 78.9 µM (inactive)
same,GI50,CCRF-CEM,7.87 µM (inactive)
same,GI50,UACC-257,9.95 µM (inactive)
same,GI50,UACC-62,22.5 µM (inactive)
same,GI50,SF-539,54.8 µM (inactive)
same,GI50,CAKI-1,73.5 µM (inactive)
same,GI50,786-0,13.9 µM (inactive)
same,GI50,RXF 393,8.91 µM (inactive)
same,GI50,MDA-N,24.2 µM (inactive)
same,GI50,SR,5.82 µM (inactive)
same,GI50,SK-MEL-2,16.8 µM (inactive)
same,GI50,COLO 205,8.83 µM (inactive)
same,GI50,BT-549,> 93.3 µM (inactive)
same,GI50,HT-29,5.47 µM (inactive)
same,GI50,OVCAR-3,1.87 µM (inactive)
same,GI50,Hs-578T,45.8 µM (inactive)
same,GI50,SK-MEL-5,14 µM (inactive)
same,GI50,SW-620,15.9 µM (inactive)
same,GI50,HCT-15,8.73 µM
same,GI50,OVCAR-5,32.8 µM (inactive)
same,GI50,NCI-H460,7.23 µM (inactive)
same,GI50,SNB-75,27.5 µM (inactive)
same,GI50,OVCAR-4,7.8 µM (inactive)
same,GI50,K562,4.25 µM (inactive)
same,GI50,HCC 2998,11.2 µM (inactive)
same,GI50,LOX IMVI,31.3 µM (inactive)
same,GI50,TK-10,39.4 µM (inactive)
same,GI50,M14,15 µM (inactive)
same,GI50,T47D,5.08 µM (inactive)
same,GI50,HL-60,0.0867 µM (active)
same,GI50,HOP-62,34.3 µM (inactive)
same,GI50,DU-145,> 85.3 µM (inactive)
same,GI50,A549,7.64 µM (inactive)
same,GI50,PC-3,6.98 µM (inactive)
same,GI50,SN12C,4.24 µM (inactive)
same,GI50,HCT-116,4.71 µM (inactive)
same,GI50,KM12,8.2 µM (inactive)
same,GI50,SK-OV-3,8.32 µM (inactive)
same,GI50,SF-295,8.43 µM (inactive)
same,GI50,OVCAR-8,15.6 µM (inactive)
same,GI50,EKVX,8.51 µM (inactive)
same,GI50,A498,31.1 µM (inactive)
same,GI50,IGROV-1,26.9 µM (inactive)
same,GI50,HOP-92,19.8 µM (inactive)
same,GI50,NCI-H23,10.9 µM (inactive)
same,GI50,MCF7,5.65 µM (inactive)
same,GI50,MDA-MB-435,11.9 µM (inactive)
same,GI50,NCI/ADR-RES,12.4 µM (inactive)
same,GI50,SNB-19,36.1 µM (inactive)
same,GI50,NCI-H226,19.7 µM (inactive)
same,GI50,RPMI-8226,4.61 µM (inactive)
same,GI50,NCI-H522,4.39 µM (inactive)
same,GI50,UO-31,11.6 µM (inactive)
same,GI50,MOLT-4,3.78 µM (inactive)
same,GI50,ACHN,20.3 µM (inactive)
same,GI50,SF-268,25 µM (inactive)
same,GI50,Malme-3M,29.4 µM (inactive)
CC1=C2C(=O)OCC23C=COC3(C)O1 (configuration not stated),GI50,U-251,25.4 µM (inactive)
same,GI50,MDA-MB-231,18.6 µM (inactive)
same,GI50,SK-MEL-28,20.4 µM (inactive)
same,GI50,CCRF-CEM,33.5 µM (inactive)
same,GI50,UACC-257,32.7 µM (inactive)
same,GI50,UACC-62,19.4 µM (inactive)
same,GI50,SF-539,21.2 µM (inactive)
same,GI50,CAKI-1,37 µM (inactive)
same,GI50,786-0,35.6 µM (inactive)
same,GI50,RXF 393,31.4 µM (inactive)
same,GI50,MDA-N,29 µM (inactive)
same,GI50,SR,8.38 µM (inactive)
same,GI50,SK-MEL-2,32.6 µM (inactive)
same,GI50,COLO 205,21.5 µM (inactive)
same,GI50,BT-549,44.4 µM (inactive)
same,GI50,HT-29,29.3 µM (inactive)
same,GI50,OVCAR-3,33.4 µM (inactive)
same,GI50,Hs-578T,50.4 µM (inactive)
same,GI50,SK-MEL-5,18 µM (inactive)
same,GI50,SW-620,26.2 µM (inactive)
same,GI50,HCT-15,26.2 µM
same,GI50,OVCAR-5,47.1 µM (inactive)
same,GI50,NCI-H460,48.4 µM (inactive)
same,GI50,SNB-75,24.8 µM (inactive)
same,GI50,OVCAR-4,29.4 µM (inactive)
same,GI50,K562,31.8 µM (inactive)
same,GI50,HCC 2998,69.3 µM (inactive)
same,GI50,LOX IMVI,30.3 µM (inactive)
same,GI50,TK-10,42 µM (inactive)
same,GI50,M14,24.7 µM (inactive)
same,GI50,T47D,29.3 µM (inactive)
same,GI50,HOP-62,34.2 µM (inactive)
same,GI50,DU-145,39.4 µM (inactive)
same,GI50,A549,66.7 µM (inactive)
same,GI50,PC-3,38.2 µM (inactive)
same,GI50,SN12C,37.7 µM (inactive)
same,GI50,HCT-116,26.9 µM (inactive)
same,GI50,KM12,26.9 µM (inactive)
same,GI50,SK-OV-3,46 µM (inactive)
same,GI50,SF-295,41.4 µM (inactive)
same,GI50,OVCAR-8,35.4 µM (inactive)
same,GI50,EKVX,35.7 µM (inactive)
same,GI50,A498,43.3 µM (inactive)
same,GI50,IGROV-1,32.7 µM (inactive)
same,GI50,HOP-92,45 µM (inactive)
same,GI50,NCI-H23,39 µM (inactive)
same,GI50,MCF7,36.2 µM (inactive)
same,GI50,MDA-MB-435,20.7 µM (inactive)
same,GI50,NCI/ADR-RES,34.9 µM (inactive)
same,GI50,SNB-19,58.9 µM (inactive)
same,GI50,NCI-H226,28.4 µM (inactive)
same,GI50,RPMI-8226,32.5 µM (inactive)
same,GI50,NCI-H522,29.1 µM (inactive)
same,GI50,UO-31,30.8 µM (inactive)
same,GI50,MOLT-4,21.4 µM (inactive)
same,GI50,ACHN,34.3 µM (inactive)
same,GI50,SF-268,60.7 µM (inactive)
same,GI50,Malme-3M,27.9 µM (inactive)
